{"source": "patent EP0417631A2", "about": "“Condensed diazepinones, process for their preparation, and medicaments containing these compounds” (Dr. Karl Thomae GmbH, priority 1989, dated 1991)", "test_system": "M-Rezeptoren der Bronchien, des Herzens und der Harnblase", "assay": "Effect on M receptors of bronchi, heart and urinary bladder of anaesthetised guinea pigs (acetylcholine-induced bronchoconstriction, bradycardia, bladder tension)", "type": "in vivo, Meerschweinchen", "description": "1. Wirkung auf M-Rezeptoren der Bronchien, des Herzens und der Harnblase anaesthetisierter Meerschweinchen\nMeerschweinchen beiderlei Geschlechts (550-600 g Körpergewicht) wurden mit Urethan (1,4 gikg, i.p.) anaesthetisiert. Eine Kanüle wurde zur Injektion der Wirkstoffe in die Jugularvene eingeführt. 220 1.U.\"kg Heparin wurden intravenös injiziert. Es wurde eine Kanüle in die Trachea eingeführt; die Tiere wurden künstlich mit sauerstoffangereicherter Luft mittels einer positiven Druckpumpe (Braun-Melsungen) bei einer Rate von 80 Schlägen pro Minute beatmet. Ein Ast der Trachealkanüle wurde mit einem Wassermanometer von 10 cm Höhe verbunden. Das Beatmungsvolumen wurde so eingestellt, daß der maximale intratracheale Druck während der Beatmung gerade den Druck einer 10 cm-Wassersäule erreichte.\nDie Werte wurden mit einem IFD Aufnahmegerät registriert. Vor dem Versuch wurde die Trachea für eine kurze Zeit abgeklemmt, um den maximal möglichen Grad der Bronchokonstriktion zur Kalibrierung zu erzeugen. […] Die Herzfrequenz wurde mit einem Frequenzmesser, der durch arterielle Pulswellen ausgelöst wird, gemessen.\nEs wurde ein kleiner medianer Bauchschnitt gesetzt und die Harnblase an einem Kraft-Transducer unter einer Ruhespannung von 1 Gramm angebunden.\nDie zu testenden Wirksubstanzen wurden über die Jugularvene injiziert, 5 Minuten später wurde die Spannungszunahme der Blase (in Gramm), der Bronchialwiderstand (in %) und die Abnahme der Herzfrequenz (Schläge pro Minute) nach Gabe von Acetylcholin (50 ug/kg i.v. und i.a.) gemessen. Es wurden dosis-abhängige Kurven durch Wiedergabe der prozentualen Hemmung der Bronchokonstriktion, Bradycardie und der Spannungszunahme der Blase gegen den Logarithmus der Dosis (mol/kg) der zu untersuchenden Wirkstoffe aufgezeichnet. Die Ergebnisse werden angegeben als Mittel- werte (n=4-6). Ergebnisse siehe Tabelle I.", "key": {"[1]": {"conditions": "qualitative statement on reference substances, summing up the tests of Tabelle I-III"}}}
{"smiles": "CN1C2CCC1CC(OC(=O)C(CO)c1ccccc1)C2", "note": "(racemic) [Z, Atropin]", "values": [{"measurement": "Selektivität (glatte Muskulatur gegenüber Herzfrequenz oder Speichelsekretion)", "setting": "in vivo", "result": "keine Selektivität"}]}
{"smiles": "CCN(CC)CC1CCCCN1CC(=O)N1c2ccccc2C(=O)Nc2cccnc21", "note": "(stereo not drawn) [X, 11-[[2-[(Diethylamino)methyl]-1-piperidinyl]acetyl]-5,11-dihydro-6H-pyrido[2,3-b][1,4]benzodiazepin-6-on]", "values": [{"measurement": "Selektivität (glatte Muskulatur gegenüber Herzfrequenz oder Speichelsekretion)", "setting": "[1]", "result": "höhere Wirksamkeit auf kardiale Muskarinrezeptoren"}]}
{"smiles": "CN1CCN(CC(=O)N2c3ccccc3C(=O)Nc3cccnc32)CC1", "note": "[Y, 5,11-Dihydro-11-[(4-methyl-1-piperazinyl)acetyl]-6H-pyrido[2,3-b][1,4]benzodiazepin-6-on]", "values": [{"measurement": "Selektivität (glatte Muskulatur gegenüber Herzfrequenz oder Speichelsekretion)", "setting": "[1]", "result": "keine Selektivität"}]}
